From patent EP4257135A1, “BENZIMIDAZOLE DERIVATIVES FOR PULMONARY ARTERIAL HYPERTENSION” (Justus-Liebig-Universität Gießen, priority 2022, dated 2023)

How the values were obtained:
PAH-SMCs = assay: Apoptosis in PAH smooth muscle cells; type: cell-based, human; details: vs DMSO
Text: PAH-FBs wurden mit verschiedenen Konzentrationen der Substanz SGC-CBP30 oder dem Lösungsmittel DMSO inkubiert, um die Zellproliferation und die Induktion von Apoptose 24 Stunden danach zu untersuchen. Die Wirkung der selektiven EP300/CREBBP-Inhibition auf die Zellproliferation wurde durch den Einbau von BrdU (Bromodeoxyuridin, 5-Bromo-2'-Deoxyuridin, BUdR, BrdUrd, Broxuridine) bewertet. Die Wirkung der Substanz SGC-CBP30 oder des Lösungsmittels DMSO auf die Induktion von Apoptose wurde durch Cell Death Detection ELISAPLUS bewertet. Dabei zeigten sich deutliche Unterschiede zwischen der Substanz SGC-CBP30 und dem Lösungsmittel DMSO.
Das therapeutische Potenzial der EP300/CREBBP-Hemmung durch die Substanz SGC-CBP30 wurde untersucht. Dazu wurde die Wirksamkeit auf PAH-FBs und PAH-SMCs geprüft, die aus den Lungenarterien von menschlichen PAH-Patienten und aus den Lungenarterien von Ratten mit MCT-PAH (Rattenmodell mit Monocrotalin) isoliert wurden. […] Die Wirkung der EP300-Hemmung auf das vaskuläre Remodelling wurde durch Quantifizierung der prozentualen medialen Wanddicke in den mit der Substanz SGC-CBP30 inkubierten PCLS im Vergleich zu den mit DMSO inkubierten Kontrollen bewertet. Dabei zeigten sich deutliche Unterschiede zwischen der Substanz SGC-CBP30 und DMSO.

PAH-FBs = assay: Cell proliferation by BrdU incorporation in PAH fibroblasts; type: cell-based, human; details: PAH-FBs isolated ex vivo; various concentrations; vs DMSO; 24 h
Text: Diese Untersuchungen führten zu der Erkenntnis, dass die epigenetische Regulation der entwicklungsbedingten TF-Expression in der Lunge durch Modulation der EP300/CREBBP-Funktion rückgängig gemacht werden kann. Die Wirkung des niedermolekularen Inhibitors (Substanz, Wirkstoff) SGC-CBP30 auf die Proliferation von Gefäßzellen, die Apoptose sowie die Gen- und Proteinexpression wurde mit Hilfe geeigneter Assays nach der Transfektion untersucht. Nachdem Zellen zur Subkonfluenz gewachsen sind, wurde ihnen mit steigenden Konzentrationen der selektive EP300-Inhibitor SGC-CBP30 (Sigma, Katalognummer: SML1133) hinzugefügt. Die aus PAH-Patienten isolierten FBs wurden also mit dem isoformselektiven HAT-Inhibitor SGC-CBP30 behandelt. Gleichzeitig wurde den Zellen das Lösungsmittel DMSO (Sigma) mit entsprechenden Konzentrationen hinzugefügt. […]
• A: PAH-FBs wurden mit siRNAs (siP300) behandelt, die auf EP300 abzielen (n=3), um die genspezifische funktionelle Rolle von EP300 bei der Hyperproliferation ex vivo 48 Stunden nach der Transfektion zu untersuchen. […] Skalenbalken: 50 µm. • E: Die Wirkung der P300-Inhibition (200 µM) auf den Gefäßumbau wurde durch Quantifizierung der prozentualen medialen Wanddicke in den mit dem EP300/CREBBP-Inhibitor SGC-CBP30 inkubierten PCLS im Vergleich zu den mit DMSO inkubierten Kontrollen bewertet. […]

In the case of `COc1ccc(CCc2nc3cc(-c4c(C)noc4C)ccc3n2C[C@H](C)N2CCOCC2)cc1Cl` [SGC-CBP30, 2-[2-(3-Chloro-4-methoxyphenyl)ethyl]-5-(3,5-dimethyl-1,2-oxazol-4-yl)-1-[(S)-2-(morpholin-4-yl)propyl]-1H-benzimidazole], the Apoptoserate (PAH-SMCs) is reported as “schwächte den hyperproliferativen Phänotyp und die Apoptoserate von PAH-FBs und PAH-SMCs deutlich ab” and the “hyperproliferativer Phänotyp (Zellproliferation, BrdU)” value (PAH-FBs) is reported as “schwächte den hyperproliferativen Phänotyp und die Apoptoserate von PAH-FBs und PAH-SMCs deutlich ab”.
